Among the data in patent US8173636B2, “Hydroxylthienoquinolones and related compounds as anti-infective agents” (Achillion Pharmaceuticals, Inc., priority 2009, dated 2012) are Cytoxicity and MIC values, retold here.

Each structure is given as a SMILES string. Values after ≈ are worked out from the molar mass of the structure shown. Where two headings read alike, the source gives them in different places.

For one data set, the system named is Hep2. Put plainly: Cell viability staining with Alamar Blue (compound cytotoxicity). Particulars: Table II, comparison of R2 acetyl vs cyano. Format: cell-based, human. The method, then: To determine whether the microcidal effect observed against S. aureus and E. coli is specific to bacterial cells, compounds are screened for cell viability effects on several human cell types. Optimal cell density is first determined by plating cells in a 96-well plate standard sterile tissue culture plates in 100 μl media, 10% FBS at six cell densities from 500 cells/well to 15,000 cells/well. A cell free well containing only media is used as a control. Cells are incubated at 37° C. in a 5% CO2 incubator for 24 hours. 10% culture volume (10 ul) of Alamar Blue (Biosource, DAL1100, 100 mL) is then added. Cells are incubated at 37° C. in a 5% CO2 incubator and read in a Victor V plate reader, 544 nm excitation, 590 nm emission, at 3, 4, and 24 hours after the addition of Alamar Blue. The cell number vs. change in fluorescence is plotted to determine linearity of signal vs. cell number. The optimal density varies between 500-15,000 cells/well depending on the specific cell type. The optimal density is selected based on the highest number of cells that is still in the linear response range. Cells are plated at optimal cell density in a standard sterile tissue culture 96 well plate, and incubated at 37° C., O/N in a 5% CO2 incubator. 12 to 48 hours post-plating media is removed. The cells are washed 1 or 2 times with 1×PBS and replaced with fresh media containing the test compound in 1% DMSO. 24 to 72 hours after addition of compound, the media is removed, and the cells washed 1 to 2 times with 1×PBS. Fresh media containing 1/10 volume of Alamar Blue is then added. Plates are incubated 4 hours at 37° C. in a 5% CO2 incubator and read in a Victor V plate reader, 544 nm excitation, 590 nm emission. Compounds are diluted to 20 micromolar in 1% DMSO and media and screened in duplicate to obtain single concentration cytotoxicity data. Eight concentration points from 0.78 micromolar to 100 micromolar, run in duplicate, are used to determine cyclotoxicity CC50 values. Cells with 1% DMSO and media are used as a negative control, compounds having a known CC50 against a particular cell type are used as positive controls. The change in fluorescence vs. concentration of test compound is plotted to determine the cytotoxicity of the compound.

Data set [1] concerns fluoroquinolone-resistant S. aureus ATCC 700699. Put plainly: Minimum inhibitory concentration (MIC) assay, broth microdilution, MRSA. It is filed as cell-based. Particulars: Staphylococcus aureus. A digest of the protocol:
(§1)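 NCCLS broth microdilution in Mueller-Hinton II broth, two-fold dilutions giving 0.125–128 μg/mL final, inoculum ~1×10^6 cfu/mL. Plates incubated in ambient air, 37 °C, 18–24 h; MIC taken as lowest concentration preventing visible growth.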

The next data set concerns S. aureus ATCC 29213. Put plainly: Minimum inhibitory concentration (MIC) assay, broth microdilution, MSSA. Format: cell-based. Particulars: Staphylococcus aureus, Table I. In outline:
as §1
On the technique in general: In broth dilution the organism is exposed to a series of concentrations in liquid medium.

The mark [2] stands for this setting: Table II, comparison of R2 acetyl vs cyano, read-out: MRSA.
Where [3] appears, read: fluoroquinolone-resistant S. aureus ATCC 700699, Table I, read-out: MRSA MIC.

As for `COc1c(N2CC[C@@H](C(C)(C)N)C2)c(F)cc2c(=O)c3c(O)c(C(C)=O)sc3n(C3CC3)c12` [Cmp 58, (R)-2-acetyl-7-(3-(2-aminopropan-2-yl)pyrrolidin-1-yl)-9-cyclopropyl-6-fluoro-3-hydroxyl-8-methoxythieno [2,3-b]quinolin-4(9H)-one], the Cytoxicity in the data set with Hep2 worked out at 20 µM. The results for the MIC (in data set [1] (setting [2]); in data set [1] (setting [3]); against S. aureus ATCC 29213) were 0.25 µg/mL (≈ 0.528 µM), 0.25 µg/mL (≈ 0.528 µM) and 0.13 µg/mL (≈ 0.275 µM), respectively.
In the case of `COc1c(N2CCCC(CN)C2)c(F)cc2c(=O)c3c(O)c(C#N)sc3n(C3CC3)c12` (stereo not shown) [Cmp 63, 7-(3-(aminomethyl)piperidin-1-yl)-9-cyclopropyl-6-fluoro-3-hydroxyl-8-methoxy-4-oxo-dihydrothieno[2,3-b] quinoline-2-carbonitrile], the Cytoxicity in the data set on Hep2 stood at 0.4 µM. The MIC in data set [1] (setting [2]) was 0.13 µg/mL (≈ 0.294 µM); in data set [1] (setting [3]), 0.13 µg/mL (≈ 0.294 µM); against S. aureus ATCC 29213 it was 0.03 µg/mL (≈ 0.0678 µM).
Regarding `COc1c(N2CCNCC2)c(F)cc2c(=O)c3c(O)c(C(C)=O)sc3n(C3CC3)c12` [Cmp 57, 2-acetyl-9-cyclopropyl-6-fluoro-3-hydroxyl-8-methoxy-7-(piperazin-1-yl)thieno[2,3-b]quinolin-4(9H)-one], in the data set with Hep2, the Cytoxicity came to 57 µM. Besides, the MIC in data set [1] (setting [2]) amounted to 1 µg/mL (≈ 2.32 µM); in data set [1] (setting [3]) it was 1 µg/mL (≈ 2.32 µM); with S. aureus ATCC 29213, 0.25 µg/mL (≈ 0.579 µM).
`COc1c(N2CC[C@@H](CN)C2)c(F)cc2c(=O)c3c(O)c(C(C)=O)sc3n(C3CC3)c12` [Cmp 60, (S)-2-acetyl-7-(3-(aminomethyl)pyrrolidin-1-yl)-9-cyclopropyl-6-fluoro-3-hydroxyl-8-methoxythieno [2,3-b]quinolin-4(9H)-one] displayed a Cytoxicity with Hep2 of 11 µM. For the same compound, the MIC (in data set [1] (setting [2]); in data set [1] (setting [3]); with S. aureus ATCC 29213) was 0.06 µg/mL (≈ 0.135 µM) in each case.
Regarding `COc1c(N2CCNCC2)c(F)cc2c(=O)c3c(n(C4CC4)c12)SC(C#N)C3=O` (stereo not shown) [Cmp 9, 9-cyclopropyl-6-fluoro-3-hydroxyl-8-methoxy-4-oxo-7-(piperazin-1-yl)-4,9-dihydrothieno[2,3-b]quinoline-2-carbonitrile], in the data set with Hep2, the Cytoxicity is 9 µM. Besides, the MIC in data set [1] (setting [2]) was 0.75 µg/mL (≈ 1.81 µM).
`COc1c(N2CC[C@@H](CN)C2)c(F)cc2c(=O)c3c(O)c(C#N)sc3n(C3CC3)c12` [Cmp 59, (S)-7-(3-(aminomethyl)pyrrolidin-1-yl)-9-cyclopropyl-6-fluoro-3-hydroxyl-8-methoxy-4-oxo-dihydrothieno[2,3-b] quinoline-2-carbonitrile]: in the data set with Hep2, the Cytoxicity is 0.06 µM. Moreover, the MIC is 0.03 µg/mL (≈ 0.07 µM) in data set [1] (setting [2]), < 0.03 µg/mL in data set [1] (setting [3]) and 0.02 µg/mL (≈ 0.0467 µM) in the data set with S. aureus ATCC 29213.
Turning to `COc1c(N2CCCC(CN)C2)c(F)cc2c(=O)c3c(O)c(C(C)=O)sc3n(C3CC3)c12` (stereo not shown) [Cmp 64, 2-acetyl-7-(3-(aminomethyl)piperidin-1-yl)-9-cyclopropyl-6-fluoro-3-hydroxyl-8-methoxythieno [2,3-b]quinolin-4(9H)-one], the Cytoxicity in the data set with Hep2 stood at 19 µM. For the same compound, the MIC in data set [1] (setting [2]) stood at 0.25 µg/mL (≈ 0.544 µM); in data set [1] (setting [3]) it was 0.25 µg/mL (≈ 0.544 µM); in the data set on S. aureus ATCC 29213, 0.13 µg/mL (≈ 0.283 µM).
For the compound `COc1c(N2CC[C@@H](C(C)(C)N)C2)c(F)cc2c(=O)c3c(n(C4CC4)c12)SC(C#N)C3=O` (stereo partly drawn) [Cmp 10, (R)-7-(3-(2-aminopropan-2-yl)pyrrolidin-1-yl)-9-cyclopropyl-6-fluoro-3-hydroxyl-8-methoxy-4-oxo-4,9-dihydrothieno [2,3-b]quinoline-2-carbonitrile], in the data set with Hep2, the Cytoxicity was determined as 2 µM. Besides, in data set [1] (setting [2]), the MIC amounted to 0.09 µg/mL (≈ 0.197 µM).
